Experimental data as given in article PMC4389225, “Triaminopyrimidine is a fast-killing and long-acting antimalarial clinical candidate” (Nature Communications, 2015).

What was measured:
Muscarinic M2 receptor = target: T1, Muscarinic M2 receptor (Homo sapiens, UniProt P08172); assay: Muscarinic M2 receptor radioligand binding (CEREP)
T1 construct: purchased CEREP, France (external assay service)
T1 sequence (P08172 1-466): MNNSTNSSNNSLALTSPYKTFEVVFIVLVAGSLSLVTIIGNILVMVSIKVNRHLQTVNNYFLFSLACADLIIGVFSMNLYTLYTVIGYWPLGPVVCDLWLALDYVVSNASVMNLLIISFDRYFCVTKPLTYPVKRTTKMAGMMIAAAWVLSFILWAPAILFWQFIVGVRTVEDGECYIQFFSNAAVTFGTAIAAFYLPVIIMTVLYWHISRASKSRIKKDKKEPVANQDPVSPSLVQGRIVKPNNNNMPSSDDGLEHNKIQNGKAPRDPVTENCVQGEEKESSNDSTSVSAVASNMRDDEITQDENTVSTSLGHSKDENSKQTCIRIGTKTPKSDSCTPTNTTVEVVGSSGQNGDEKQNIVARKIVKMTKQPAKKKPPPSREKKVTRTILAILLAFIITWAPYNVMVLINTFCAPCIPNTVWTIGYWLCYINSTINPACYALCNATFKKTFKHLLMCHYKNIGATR
Protocol: An in vitro pharmacological profiling panel was specifically designed for the detection of potential high- risk clinical adverse drug reactions. The panel comprised of 26 diverse targets (6 enzymes, 2 transporters, 9 G-protein-coupled receptors (GPCRs), 5 ion channels along with hERG, M2, alpha1A and AchE) and was conduced externally by CEREP, France […]. […] Detailed methodology for in vitro pharmacological profiling assays provided by CEREP can be found at http://www.cerep.fr, with specific reference to the AChE (cat. no. 0363), Muscarinic M1 receptor (cat. no. 0091) and Adrenergic α1A receptor (cat. no. 2338) assays. For enzyme and kinase assays, the results were expressed as a percent inhibition of control-specific activity obtained in the presence of the test compound. The IC50 values (concentration causing a half-maximal inhibition of control-specific activity) and Hill coefficients (nH) were determined by nonlinear regression analysis of the inhibition/concentration–response curves using Hill equation curve fitting as described earlier.
For radioligand binding assays, the results are expressed as % inhibition of control-specific binding obtained in the presence of the test compounds. The IC50 values (concentration causing a half-maximal inhibition of control-specific binding) and Hill coefficients (nH) were determined by nonlinear regression analysis of the competition curves generated with mean replicate values using Hill equation curve fitting. The inhibition constants (Ki) were subsequently calculated by applying the Cheng Prusoff equation[38].

Ion channel [1] = assay: Secondary pharmacology panel, target #5
Protocol: (§1) An in vitro pharmacological profiling panel was specifically designed for the detection of potential high- risk clinical adverse drug reactions. […] For enzyme and kinase assays, the results were expressed as a percent inhibition of control-specific activity obtained in the presence of the test compound. The IC50 values (concentration causing a half-maximal inhibition of control-specific activity) and Hill coefficients (nH) were determined by nonlinear regression analysis of the inhibition/concentration–response curves using Hill equation curve fitting as described earlier[37].
(§2) For assessment of activity against these targets, compounds were tested in an 8-point
(§3) concentration response covering half-log units up to a top test concentration of 100 µM, and
(§4) an IC50 or Ki determined using either radio ligand binding assays or enzyme activity assays.

Enzyme [2] = assay: Secondary pharmacology panel, target #11
Protocol: (§5) For enzyme and kinase assays, the results were expressed as a percent inhibition of control-specific activity obtained in the presence of the test compound. The IC50 values (concentration causing a half-maximal inhibition of control-specific activity) and Hill coefficients (nH) were determined by nonlinear regression analysis of the inhibition/concentration–response curves using Hill equation curve fitting as described earlier[37].
as §2, §3, §4

Ion channel [3] = assay: Secondary pharmacology panel, target #17
Protocol: as §1, §2, §3, §4

Enzyme [4] = assay: Secondary pharmacology panel, target #24
Protocol: as §5, §2, §3, §4

Pf = assay: Predicted human efficacy (parasite load reduction); design: species or system Plasmodium falciparum
Protocol: The predicted human exposure after a single dose of 260 mg is likely to sustain the maximum kill rate observed in the Pf/SCID model for 4–6 days to achieve >3-log reduction in parasitemia (Supplementary Note 6, Supplementary Figs 12 and 13, and Supplementary Table 12). A patient with clinical symptoms of uncomplicated malaria may have 1–2% parasitemia in blood, which is equivalent to 11–12 log parasites in total, assuming 13 log erythrocytes in human blood. At a dose of 260 mg, compound 12 is predicted to maintain a constant kill rate over two life cycles (96 h) of the parasite to yield a 3 to 4-log reduction in the total parasite load. Therefore, a single-dose treatment with~500 mg might result in >8-log reduction in the parasite load. In a combination-based malaria therapy that is clinically practiced, an additive or synergistic effect of the partner drug with compound 12 is predicted to cure patients following a single-dose treatment.
Prediction of human PK profile. The predicted human CL and Vss estimates could be used for predicting human PK with a one compartment distribution. However, rat and dog IVPK profiles indicated a two compartment distribution. Parameters for the two compartment distribution in human were predicted by Wajima transformation8 of rat and dog IVPK […]
CLd, Vt and Vc estimates, assuming similar Ka (0.3/h) and F (0.7) as observed in rats (supplementary Fig. 12 ).
Predicted human PK parameters are shown in supplementary Table 12. Human CL estimates predicted by the FCIM method and IVIVE (3.8 ml/min/kg) were identical. The […]
Human efficacy was predicted after treatment of 70 kg adult with a single 260 mg dose, assuming 2% parasitemia at the onset of treatment and assuming one compartment distribution of 12 in humans (supplementary Fig. 13). Similar efficacy was predicted if 12 was distributed in two compartments.

Dd2 = assay: [3H]-hypoxanthine incorporation assay, Dd2; type: cell-based, Plasmodium falciparum; settings: Plasmodium falciparum, DD2
Protocol: 9 and 12 were tested for their antiplasmodial activity against a panel of Pf strains known to harbour mutations conferring resistance to novel agents under clinical development. Parasite growth inhibition is measured using the [3H]-hypoxanthine incorporation assay. IC50s are established for each strain (n ≥2) and compared to the IC50 of Dd2 (standard pan-resistant

[5] = 3-day rat toxicity (tolerability) study of compound 12; type: in vivo; settings: for Summary of clinical signs and effects: NOEL = no observed effect level
Protocol: Two groups of male rats (n=3, Han Wistar) were obtained from Charles River Laboratories, UK. Animals were group housed for ~1 week before the initiation of dosing. On the first day of dosing, rats were ~11 weeks of age and weighed 250–300 g and received compound 12 via oral gavage at dose levels of 75 or 150 mg kg^−1 for three consecutive days and necropsied 24 h after the final dose. Vehicle: 1% pluronic F127; dose volume: 10 ml kg^−1. In addition to regular monitoring of the animals' general condition, toxicokinetic profiles were obtained on day 1 and clinical chemistry, haematology and histopathology were assessed from all animals on day 4. Female animals were not included in the study as sex differences in either exposure or tolerability were not expected and control animals were excluded from this preliminary study design to reduce animal usage. Body weights were collected during acclimation and before each dose. Food and water consumption were available ad libitum but not recorded.
Toxicokinetic profiles were obtained on day 1 from all animals (time points: 0.5, 1, 2, 4, 6 and 24 h post dose) via microsample tail prick (32 μl blood) and were analysed using a qualified analytical procedure. Clinical pathology blood samples were taken at necropsy (24 h after third and final dose) from all animals, and analysed following a routine toxicological parameter list. Urinalysis was not performed.

[6] = Plasma protein binding, rat

SMILES	IC50 (Muscarinic M2 receptor)	Ki (Muscarinic M2 receptor)	Selectivity ratio for M2 (IC50 / blood Cmin at ED90 in the Pf/SCID model) (Muscarinic M2 receptor)	Binding Ki / Enzyme IC50 (Ion channel [1])	Binding Ki / Enzyme IC50 (Enzyme [2])	Binding Ki / Enzyme IC50 (Ion channel [3])	Binding Ki / Enzyme IC50 (Enzyme [4])	predicted reduction in the total parasite load (Pf; 260 mg, two life cycles (96 h))	predicted reduction in parasitemia (Pf; single dose of 260 mg, 4–6 days)	predicted reduction in the parasite load (Pf; single dose ~500 mg)	IC50 (Dd2)	A—plasma Cmax free ([5]; 75 mg kg^−1 per day oral)	Safety margin (A/B)-free Cmax ([5]; 75 mg kg^−1 per day oral)	Summary of clinical signs and effects ([5]; 75 mg kg^−1 per day oral)	A—plasma Cmax free ([5]; 150 mg kg^−1 per day oral)	Safety margin (A/B)-free Cmax ([5]; 150 mg kg^−1 per day oral)	Summary of clinical signs and effects ([5]; 150 mg kg^−1 per day oral)	clinical pathology and histopathology findings ([5]; 75 or 150 mg kg^−1 oral, three days)	fraction unbound [6]
Cc1cc(Nc2ncc(N3CCN(C)CC3)c(N3CCCC3)n2)ccn1 [compound 2]	1600 nM	1100 nM	< 1	3640 nM	> 100000 nM	59000 nM	> 100000 nM	–	–	–	–	–	–	–	–	–	–	–	–
Cc1nc(Nc2ncc(N3CCN(C)[C@H](C)C3)c(Nc3cc(C)n(C)n3)n2)cc(C2CC2)c1F [compound 12, (R)-N2-(4-cyclopropyl-5-fluoro-6-methylpyridin-2-yl)-N4-(1,5-dimethyl-1H-pyrazol-3-yl)-5-(3,4-dimethylpiperazin-1-yl)pyrimidine-2,4-diamine]	2000 nM	1050 nM	–	8580 nM	4290 nM	> 100000 nM	> 100000 nM	3 to 4 log	> 3 log	> 8 log	3.5 nM	110 nM	12.6	NOEL	130 nM	15	NOEL	no findings considered related to treatment	0.04
